Test system: PSMA-expressing LNCAP cancer xenografts
Test: Biodistribution and tumor-to-background contrast ratios of 18F-labeled tracers
Type: in vivo, mouse (NODSCID 1L2RγKO male mice)
Experimental: LNCap cell line was obtained from ATCC (LNCaP clone FGC, CRL-1740). It was established from a metastatic site of left supraclavicular lymph node of human prostatic adenocarcinoma. Cells were cultured in PRMI 1640 medium supplemented with 10% FBS, penicillin (100 U/mL) and streptomycin (100 μg/mL) at 37° C. in a humidified incubator containing 5% CO2. Cells grown to 80-90% confluence were then washed with sterile phosphate-buffered saline (1×PBS pH 7.4) and trypsinization. The collected cells number was counted with a Hausser Scientific (Horsham, Pa.) Hemacytometer.
Imaging and biodistribution experiments were performed using NODSCID 1L2RγKO male mice. Mice were anesthetized by inhalation with 2% isoflurane in oxygen, and implanted subcutaneously with 1×10^7 LNCaP cells behind left shoulder. Mice were imaged or used in biodistribution studies when the tumor grew up to reach 5-8 mm in diameter during 5-6 weeks.
PET imaging experiments were conducted using Siemens Inveon micro PET/CT scanner. Each tumor bearing mouse was injected 6-8 MBq of F-18 labeled tracer through the tail vein under anesthesia (2% isoflurane in oxygen). The mice were allowed to recover and roam freely in their cage. After 50 min, the mice were sedated again with 2% isoflurane in oxygen inhalation and positioned in the scanner. A 10-min CT scan was conducted first for localization and attenuation correction after segmentation for reconstructing the PET images. Then, a 10-min static PET imaging was performed to determined uptake in tumor and other organs. The mice were kept warm by a heating pad during acquisition. For imaging studies acquired at 2 h post-injection (p.i.), the mice were placed in the micro PET/CT scanner at 110 min p.i. Then, the CT and PET acquisitions were conducted as described above.
For biodistribution studies, the mice were injected with the radiotracer as described above. At predetermined time points (1 or 2 h), the mice was anesthetized with 2% isoflurane inhalation, and euthanized by CO2 inhalation. Blood was withdrawn immediately from the heart, and the organs/tissues of interest were collected. The collected organs/tissues were weighed and counted using an automatic gamma counter. The uptake in each organ/tissue was normalized to the injected dose using a standard curve, and expressed as the percentage of the injected dose per gram of tissue (% ID/g).

C[N+](C)(Cc1ccc(C(=O)NCCCC[C@H](NC(=O)N[C@@H](CCC(=O)O)C(=O)O)C(=O)O)cc1)C[B-](F)(F)[18F] [F-18 HTK-01069]
Biodistribution Adrenal glands (1 h): 4.77 ± 1.75 % ID/g
Biodistribution Blood (1 h): 0.57 ± 0.15 % ID/g
Biodistribution Bone (1 h): 0.36 ± 0.02 % ID/g
Biodistribution Brain (1 h): 0.04 ± 0.01 % ID/g
Biodistribution Fat (1 h): 0.99 ± 0.39 % ID/g
Biodistribution Heart (1 h): 0.30 ± 0.06 % ID/g
Biodistribution Intestine (1 h): 0.54 ± 0.11 % ID/g
Biodistribution Kidneys (1 h): 114 ± 41.3 % ID/g
Biodistribution Liver (1 h): 2.90 ± 0.56 % ID/g
Biodistribution Lungs (1 h): 1.37 ± 0.36 % ID/g
Biodistribution Muscle (1 h): 0.26 ± 0.08 % ID/g
Biodistribution Pancreas (1 h): 0.55 ± 0.16 % ID/g
Biodistribution Spleen (1 h): 2.67 ± 0.98 % ID/g
Biodistribution Stomach (1 h): 0.12 ± 0.05 % ID/g
Biodistribution Testes (1 h): 0.62 ± 0.15 % ID/g
Biodistribution Tumor (1 h): 6.04 ± 1.24 % ID/g
Tumor:Blood contrast ratio (1 h): 10.8 ± 1.64
Tumor:Muscle contrast ratio (1 h): 23.4 ± 3.71
Tumor:kidney contrast ratio (1 h): 0.07 ± 0.06
Biodistribution Adrenal glands (2 h): 3.66 ± 2.01 % ID/g
Biodistribution Blood (2 h): 0.24 ± 0.10 % ID/g
Biodistribution Bone (2 h): 0.30 ± 0.10 % ID/g
Biodistribution Brain (2 h): 0.04 ± 0.01 % ID/g
Biodistribution Fat (2 h): 0.86 ± 0.53 % ID/g
Biodistribution Heart (2 h): 0.20 ± 0.08 % ID/g
Biodistribution Intestine (2 h): 0.72 ± 0.15 % ID/g
Biodistribution Kidneys (2 h): 103 ± 56.7 % ID/g
Biodistribution Liver (2 h): 2.75 ± 0.56 % ID/g
Biodistribution Lungs (2 h): 0.99 ± 0.32 % ID/g
Biodistribution Muscle (2 h): 0.15 ± 0.04 % ID/g
Biodistribution Pancreas (2 h): 0.41 ± 0.20 % ID/g
Biodistribution Spleen (2 h): 1.93 ± 0.85 % ID/g
Biodistribution Stomach (2 h): 0.09 ± 0.03 % ID/g
Biodistribution Testes (2 h): 0.40 ± 0.06 % ID/g
Biodistribution Tumor (2 h): 5.47 ± 0.75 % ID/g
Tumor:Blood contrast ratio (2 h): 26.9 ± 13.3
Tumor:Muscle contrast ratio (2 h): 37.4 ± 8.86
Tumor:kidney contrast ratio (2 h): 0.07 ± 0.03

C[N+](C)(Cc1cn(Cc2ccc(C(=O)NCCCC[C@H](NC(=O)N[C@@H](CCC(=O)O)C(=O)O)C(=O)O)cc2)nn1)C[B-](F)(F)[18F] [F-18 HTK-01070]
Biodistribution Adrenal glands (1 h): 4.65 ± 1.75 % ID/g
Biodistribution Blood (1 h): 0.52 ± 0.06 % ID/g
Biodistribution Bone (1 h): 0.44 ± 0.09 % ID/g
Biodistribution Brain (1 h): 0.04 ± 0.01 % ID/g
Biodistribution Fat (1 h): 0.73 ± 0.26 % ID/g
Biodistribution Heart (1 h): 0.33 ± 0.08 % ID/g
Biodistribution Intestine (1 h): 0.33 ± 0.05 % ID/g
Biodistribution Kidneys (1 h): 71.7 ± 18.0 % ID/g
Biodistribution Liver (1 h): 1.69 ± 0.19 % ID/g
Biodistribution Lungs (1 h): 1.39 ± 0.17 % ID/g
Biodistribution Muscle (1 h): 0.23 ± 0.04 % ID/g
Biodistribution Pancreas (1 h): 0.33 ± 0.05 % ID/g
Biodistribution Spleen (1 h): 5.01 ± 0.64 % ID/g
Biodistribution Stomach (1 h): 0.10 ± 0.03 % ID/g
Biodistribution Testes (1 h): 0.67 ± 0.17 % ID/g
Biodistribution Tumor (1 h): 8.28 ± 1.25 % ID/g
Tumor:Blood contrast ratio (1 h): 16.0 ± 1.37
Tumor:Muscle contrast ratio (1 h): 37.3 ± 9.53
Tumor:kidney contrast ratio (1 h): 0.12 ± 0.04
Biodistribution Adrenal glands (2 h): 2.11 ± 0.78 % ID/g
Biodistribution Blood (2 h): 0.23 ± 0.11 % ID/g
Biodistribution Bone (2 h): 0.30 ± 0.06 % ID/g
Biodistribution Brain (2 h): 0.03 ± 0.01 % ID/g
Biodistribution Fat (2 h): 0.62 ± 0.34 % ID/g
Biodistribution Heart (2 h): 0.13 ± 0.06 % ID/g
Biodistribution Intestine (2 h): 0.29 ± 0.08 % ID/g
Biodistribution Kidneys (2 h): 68.5 ± 28.7 % ID/g
Biodistribution Liver (2 h): 1.50 ± 0.30 % ID/g
Biodistribution Lungs (2 h): 0.69 ± 0.23 % ID/g
Biodistribution Muscle (2 h): 0.12 ± 0.03 % ID/g
Biodistribution Pancreas (2 h): 0.21 ± 0.07 % ID/g
Biodistribution Spleen (2 h): 1.30 ± 0.48 % ID/g
Biodistribution Stomach (2 h): 0.06 ± 0.02 % ID/g
Biodistribution Testes (2 h): 0.36 ± 0.21 % ID/g
Biodistribution Tumor (2 h): 7.56 ± 1.57 % ID/g
Tumor:Blood contrast ratio (2 h): 38.9 ± 18.8
Tumor:Muscle contrast ratio (2 h): 67.7 ± 14.8
Tumor:kidney contrast ratio (2 h): 0.14 ± 0.10

Source: patent US10882871B2, “18/19F-labelled compounds which target the prostate specific membrane antigen” (BRITISH COLUMBIA CANCER AGENCY BRANCH, priority 2016, dated 2021)
